Test results: PubChem BioAssay (NCI)
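A five-concentration, 48-hour dose response in 96-well plates underlies each endpoint, interpolated linearly between surrounding concentrations. Abbreviation: GI50, concentration required for 50% inhibition of growth. TGI is the concentration that stops growth completely.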

Assays:
Experiment in all cases: NCI tumour cell line growth inhibition, 48 h
[1] = tested on: SNB-19 CNS
[2] = tested on: OVCAR-5 ovarian
[3] = tested on: SK-MEL-28 melanoma
[4] = tested on: TK-10 renal
[5] = tested on: HS 578T breast
[6] = tested on: NCI-H226 lung
[7] = tested on: CAKI-1 renal
[8] = tested on: SN12C renal
[9] = tested on: RXF 393 renal
[10] = tested on: OVCAR-3 ovarian
[11] = tested on: HCT-116 colon
[12] = tested on: MALME-3M melanoma
[13] = tested on: MOLT-4 leukemia
[14] = tested on: HOP-92 NSCLC
[15] = tested on: DU-145 prostate
[16] = tested on: M14 melanoma
[17] = tested on: 786-0 renal
[18] = tested on: SK-MEL-5 melanoma
[19] = tested on: U251 CNS
[20] = tested on: NCI-H23 lung
[21] = tested on: MDA-MB-231 breast
[22] = tested on: LOX IMVI melanoma
[23] = tested on: SF-295 CNS
[24] = tested on: K-562 leukemia
[25] = tested on: NCI-H460 lung
[26] = tested on: SNB-75 CNS
[27] = tested on: KM12 colon
[28] = tested on: NCI/ADR-RES ovarian
[29] = tested on: HCC-2998 colon
[30] = tested on: OVCAR-8 ovarian
[31] = tested on: SK-MEL-2 melanoma
[32] = tested on: SR leukemia
[33] = tested on: BT-549 breast
[34] = tested on: UACC-257 melanoma
[35] = tested on: RPMI-8226 leukemia
[36] = tested on: NCI-H522 lung
[37] = tested on: PC-3 prostate
[38] = tested on: UO-31 renal
[39] = tested on: SW-620 colon
[40] = tested on: IGROV1 ovarian
[41] = tested on: UACC-62 melanoma
[42] = tested on: HOP-62 NSCLC
[43] = tested on: MCF7 breast
[44] = tested on: HL-60(TB) leukemia
[45] = tested on: HCT-15 colon
[46] = tested on: ACHN renal
[47] = tested on: A549 NSCLC
[48] = tested on: SF-268 CNS
[49] = tested on: T-47D breast
[50] = tested on: SF-539 CNS
[51] = tested on: HT29 colon
[52] = tested on: COLO 205 colon
[53] = tested on: MDA-MB-435
[54] = tested on: A498 renal
[55] = tested on: OVCAR-4 ovarian
[56] = tested on: EKVX NSCLC
[57] = tested on: CCRF-CEM leukemia
[58] = tested on: SK-OV-3 ovarian

CCOC(=O)Nn1c(C)nnc1CC#N
TGI [1]: > 100 µM
TGI [2]: > 100 µM
TGI [3]: > 100 µM
TGI [4]: > 100 µM
TGI [5]: > 100 µM
TGI [6]: > 100 µM
TGI [7]: > 100 µM
TGI [8]: > 100 µM
TGI [9]: > 100 µM
TGI [10]: > 100 µM
TGI [11]: > 100 µM
TGI [12]: > 100 µM
TGI [13]: > 100 µM
TGI [14]: > 100 µM
TGI [15]: > 100 µM
TGI [16]: > 100 µM
TGI [17]: > 100 µM
TGI [18]: > 100 µM
TGI [19]: > 100 µM
TGI [20]: > 100 µM
TGI [21]: > 100 µM
TGI [22]: > 100 µM
TGI [23]: > 100 µM
TGI [24]: > 100 µM
TGI [25]: > 100 µM
TGI [26]: > 100 µM
TGI [27]: > 100 µM
TGI [28]: > 100 µM
TGI [29]: > 100 µM
TGI [30]: > 100 µM
TGI [31]: > 100 µM
TGI [32]: > 100 µM
TGI [33]: > 100 µM
TGI [34]: > 100 µM
TGI [35]: > 100 µM
TGI [36]: > 100 µM
TGI [37]: > 100 µM
TGI [38]: > 100 µM
TGI [39]: > 100 µM
TGI [40]: > 100 µM
TGI [41]: > 100 µM
TGI [42]: > 100 µM
TGI [43]: > 100 µM
TGI [44]: > 100 µM
TGI [45]: > 100 µM
TGI [46]: > 100 µM
TGI [47]: > 100 µM
TGI [48]: > 100 µM
TGI [49]: > 100 µM
TGI [50]: > 100 µM
TGI [51]: > 100 µM

O=C(N/N=C/c1ccccc1O)c1ccccc1O
GI50 [1]: 2.69 µM
TGI [1]: > 100 µM
GI50 [2]: 4.96 µM
TGI [2]: > 100 µM
GI50 [3]: 1.92 µM
TGI [3]: > 100 µM
GI50 [4]: 0.518 µM
TGI [4]: > 100 µM
GI50 [5]: 8.51 µM
TGI [5]: > 100 µM
GI50 [6]: 2.43 µM
TGI [6]: > 100 µM
GI50 [7]: 0.488 µM
TGI [7]: > 100 µM
GI50 [8]: 1.44 µM
TGI [8]: > 100 µM
GI50 [9]: 1.49 µM
TGI [9]: > 100 µM
GI50 [10]: 0.437 µM
TGI [10]: > 100 µM
GI50 [11]: 0.325 µM
TGI [11]: > 100 µM
GI50 [52]: 3.53 µM
TGI [52]: > 100 µM
GI50 [12]: 12.6 µM
TGI [12]: > 100 µM
GI50 [13]: 0.637 µM
TGI [13]: > 100 µM
GI50 [14]: 0.804 µM
TGI [14]: > 100 µM
GI50 [15]: 0.847 µM
TGI [15]: > 100 µM
GI50 [17]: 1.14 µM
TGI [17]: > 100 µM
GI50 [18]: 1.08 µM
TGI [18]: 12.8 µM
GI50 [19]: 0.926 µM
TGI [19]: > 100 µM
GI50 [20]: 2.9 µM
TGI [20]: > 100 µM
GI50 [21]: 0.676 µM
TGI [21]: > 100 µM
GI50 [22]: 0.286 µM
TGI [22]: > 100 µM
GI50 [23]: 1.27 µM
TGI [23]: > 100 µM
GI50 [24]: 2.62 µM
TGI [24]: > 100 µM
GI50 [25]: 0.514 µM
TGI [25]: > 100 µM
GI50 [26]: 0.39 µM
TGI [26]: > 100 µM
GI50 [53]: 3.88 µM
TGI [53]: > 100 µM
GI50 [27]: 0.766 µM
TGI [27]: > 100 µM
GI50 [28]: 0.451 µM
TGI [28]: > 100 µM
GI50 [29]: 1.91 µM
TGI [29]: > 100 µM
GI50 [30]: 0.618 µM
TGI [30]: > 100 µM
GI50 [31]: 1.03 µM
TGI [31]: > 100 µM
GI50 [32]: 1.74 µM
TGI [32]: > 100 µM
GI50 [33]: 4.44 µM
TGI [33]: > 100 µM
GI50 [34]: 0.434 µM
TGI [34]: > 100 µM
GI50 [35]: 1.7 µM
TGI [35]: > 100 µM
GI50 [36]: 0.303 µM
TGI [36]: 17.9 µM
GI50 [38]: 3.12 µM
TGI [38]: > 100 µM
GI50 [39]: 0.877 µM
TGI [39]: > 100 µM
GI50 [54]: 2.57 µM
TGI [54]: > 100 µM
GI50 [40]: 0.794 µM
TGI [40]: > 100 µM
GI50 [41]: 0.733 µM
TGI [41]: > 100 µM
GI50 [42]: 0.568 µM
TGI [42]: > 100 µM
GI50 [43]: 0.337 µM
TGI [43]: > 100 µM
GI50 [55]: 0.297 µM
TGI [55]: > 100 µM
GI50 [45]: 0.423 µM
TGI [45]: > 100 µM
GI50 [46]: 0.68 µM
TGI [46]: > 100 µM
GI50 [47]: 2.08 µM
TGI [47]: > 100 µM
GI50 [56]: 2.23 µM
TGI [56]: > 100 µM
GI50 [57]: 0.499 µM
TGI [57]: > 100 µM
GI50 [48]: 0.802 µM
TGI [48]: > 100 µM
GI50 [49]: 0.418 µM
TGI [49]: > 100 µM
GI50 [50]: 1.74 µM
TGI [50]: > 100 µM
GI50 [51]: 11.6 µM
TGI [51]: > 100 µM
GI50 [58]: 1.75 µM
TGI [58]: > 100 µM
